Assay results reported in paper PMC10432207 (Heliyon, 2023).
In brackets after ≈: the same amount, converted by molar mass.

Molecular target: Hyalomma scupense acetylcholinesterase (AChE)
Test: Ellman assay, absorbance at […] nm
Assay type: biochemical
Conditions: acetylthiocholine iodide, DTNB, 10 min, 37 °C

SMILES | IC50 (positive control) | IC50
COc1ccc2c3c1O[C@H]1C[C@@H](O)C=C[C@@]31CCN(C)C2 [galantamine] | 97 mg/L (≈ 338 µM) | –
C=CCc1ccc(O)c(OC)c1 [eugenol] | – | 178 mg/L (≈ 1080 µM)
